Measured values taken from patent publication US20230232830A1, “METHOD FOR REDUCING OR PREVENTING EFFECT OF NON-BIOLOGICAL STRESS ON PLANT” (NIPPON SODA CO., LTD., priority 2020, published 2023).

How the values were obtained:
soybean = assay: Bioassay 1, drought stress, soybean test (foliage spray, degree of withering); format: in vivo; conditions: 200 ppm foliage spray; for Withering Index: 2 to 3 leaf stage, 2 days at 25° C., aerial parts cut out, four stages (0: healthy to 3: complete withering), average of test series
Description: (§1) A 5-membered heterocyclyl compound dissolved in DMF was diluted with water so that the concentration of the compound was 200 ppm, and a sufficient amount of the diluted solution was foliage-sprayed on corn and soybean at the 2 to 3 leaf stage.
(§2) Corn and soybean foliage-sprayed with a sufficient amount of a diluted solution prepared by removing the compound were used as the untreated plot.
(§3) The sprayed test plants were cultivated for 2 days under the conditions of a temperature of 25° C. and a day length of 14 hours.
(§4) The aerial parts were cut out and the corn or soybean of the untreated plot was left to stand until completely withered. The degree of withering was investigated from the perspective of four stages (0: healthy to 3: complete withering).
Here, with respect to soybean, complete withering refers to a state in which all the leaves of the soybean are withered and the upper part is curved.
(§5) Abscisic acid was used as a control. Abscisic acid (ABA), known as a plant hormone, is produced by the plant itself and is known as an important signal substance that closes the stomata during drought stress to suppress excessive transpiration of water from the leaves, and induces stress tolerance.
The index of ABA indicates the average of the results of a series of 10 tests. The index of the 5-membered heterocyclyl compound (F) indicates the average of the results of a series of 2 tests.

corn = assay: Bioassay 1, drought stress, corn test (foliage spray, degree of withering); format: in vivo; conditions: 200 ppm foliage spray; for Withering Index: 2 to 3 leaf stage, 2 days at 25° C., aerial parts cut out, four stages (0: healthy to 3: complete withering), average of test series
Description: as §1, §2, §3, §4
As for corn, it refers to a bent state.
as §5
The index of ABA indicates the average of the results of a series of 10 tests. The index of the 5-membered heterocyclyl compounds (A) to (F) indicates the average of the results of a series of 2 tests.

Arabidopsis thaliana = assay: Bioassay 2, salt stress, survival of Arabidopsis thaliana plants in 150 mM NaCl; format: in vivo; conditions: 168 h, 5 ppm compound for 1 day, then 150 mM NaCl for 7 days, green individuals alive, yellowed or bleached dead, read-out: Survival Rate (%)
Description: Arabidopsis thaliana seeds were sterilized with 70% ethanol and then sown in a petri dish containing HYPONeX (sterilized) diluted 4,000 times with water. The compound was diluted with sterile water so that the concentration of the compound dissolved in DMSO was 5 ppm. 65 μl of each drug solution was dispensed into a 96-well microplate, into which 5 Arabidopsis thaliana plants on their 8th day of sowing were placed and left to stand for 1 day. The next day, the plants were transferred to a well containing 65 μl of 150 mM NaCl and cultured for 7 days. The treatment was performed in two series, and in the investigation, a stereomicroscope was used to determine their survival, with the green individuals identified as alive and the yellowed or bleached individuals as dead.

O=c1cc(OCc2ccc(-c3noc(C(F)(F)F)n3)cc2)ccn1CC1CC1 [Compound 4]
Withering Index (soybean): 1.5 | melting point: 115 to 117 °C

COCCn1cccc(OCc2ccc(-c3noc(C(F)(F)F)n3)cc2)c1=O [Compound 11]
Withering Index (corn): 1.0 | melting point: 127 to 130 °C

C=CCON=C1CN(C(=O)Cc2ccc(-c3noc(C(F)(F)F)n3)cc2)C1 [Compound 2]
responders at 5 ppm (Arabidopsis thaliana): 70%

CC(=NOC/C=C/Cl)c1ccc(C2=NOC(O)(C(F)(F)F)C2)cc1 (centres unmarked) [Compound 8]
Withering Index (corn): 1.5 | melting point: 126 to 128 °C

O=c1c(Cl)c(Cl)cnn1Cc1ccc(-c2noc(C(F)(F)F)n2)cc1 [J]
Withering Index (corn): 1.0

O=C(NC1CC1)c1ccn(Cc2ccc(-c3noc(C(F)(F)F)n3)cc2)n1 [K]
Withering Index (corn): 1.0

CON=C1CN(c2cc(=O)n(Cc3ccc(-c4noc(C(F)(F)F)n4)cc3)cn2)C1 [Compound 3]
responders at 5 ppm (Arabidopsis thaliana): 70%

FC(F)(F)c1nc(-c2ccc(COc3cc(Cl)ncn3)cc2)no1 [Compound 6]
Withering Index (corn): 1.0 | melting point: 144 to 146 °C

CCON=C1CN(C(=O)C(C)c2ccc(-c3noc(C(F)(F)F)n3)cc2)C1 (centres unmarked) [G]
responders at 5 ppm (Arabidopsis thaliana): 80%

COc1cncn(Cc2ccc(-c3noc(C(F)(F)F)n3)cc2)c1=O [Compound 10]
Withering Index (corn): 1.0 | melting point: 119 to 120 °C

CCON=C1CN(C(=O)C(OC)c2ccc(-c3noc(C(F)(F)F)n3)cc2F)C1 (centres unmarked) [Compound 1]
responders at 5 ppm (Arabidopsis thaliana): 80%

FC(F)(F)c1nc(-c2ccc(COc3cc(-n4cncn4)ncn3)cc2)no1 [Compound 7]
responders at 5 ppm (Arabidopsis thaliana): 70%

CC1=CC(=O)CC(C)(C)[C@@]1(O)/C=C/C(C)=C\C(=O)O [ABA, Abscisic acid, reference compound]
Withering Index (corn): 1.1 | Withering Index (soybean): 0.5

CSc1nccc(OCc2ccc(-c3noc(C(F)(F)F)n3)cc2)n1 [Compound 5]
responders at 5 ppm (Arabidopsis thaliana): 80%

Cc1nc(C)n(Cc2ccc(-c3noc(C(F)(F)F)n3)cc2)c(=O)c1Cl [H]
Withering Index (corn): 1.5

CCON=C1CN(C(=O)C(OC)c2ccc(-c3noc(C(F)(F)F)n3)cc2)C1 (centres unmarked) [B]
Withering Index (corn): 1.5

O=C(c1ccc(-c2noc(C(F)(F)F)n2)cc1)N1CCCCC1 [D]
Withering Index (corn): 1.5 | responders at 5 ppm (Arabidopsis thaliana): 80%

CCOC(=O)c1ccnn1Cc1ccc(-c2noc(C(F)(F)F)n2)cc1 [L]
Withering Index (soybean): 1.5

CON=C(C)c1ccc(C2=NOC(OC)(C(F)(F)F)C2)cc1 (centres unmarked) [Compound 9]
Withering Index (corn): 1.5 | melting point: 80 to 82 °C

O=c1cccnn1Cc1ccc(-c2noc(C(F)(F)F)n2)cc1 [C]
Withering Index (corn): 1.5

O=C1CCCCN1Cc1ccc(-c2noc(C(F)(F)F)n2)cc1 [M]
responders at 5 ppm (Arabidopsis thaliana): 70%

N#CCON=C1CN(C(=O)Cc2ccc(-c3noc(C(F)(F)F)n3)cc2)C1 [A]
Withering Index (corn): 1.5

O=C(NC12CC(C1)C2)c1ccc(-c2noc(C(F)(F)F)n2)cc1 [F]
Withering Index (corn): 0.5 | reduction of drought stress compared with ABA (corn; result in words): showed an index higher than that of ABA | Withering Index (soybean): 1.5 | reduction of drought stress compared with ABA (soybean; result in words): reduces the drought stress, although to a lesser extent than ABA

CC1(NC(=O)c2ccc(-c3noc(C(F)(F)F)n3)cc2)CC1 [E]
Withering Index (corn): 1.5
